Reference: ChEMBL document CHEMBL1136030, “Synthesis and antiaggregant properties of Stabilized analogues of polyunsaturated fatty acid metabolites” (Bioorg Med Chem Lett, 2002)

Columns and labels:
Oryctolagus cuniculus = species on record: Oryctolagus cuniculus; assay: Anti-platelet activity was measured by studying their antagonist effects on rabbit platelets aggregated with U-46,619.; type: functional
Homo sapiens = species on record: Homo sapiens; assay: Anti-platelet activity was measured by studying their antagonist effects on human platelets aggregated with collagen; type: functional

IC50 (Oryctolagus cuniculus) | IC50 (Homo sapiens) | Compound
4 µM |  | CCCCC/C=C\C[C@@H](O)/C=C/C=C\C/C=C\CCCC(=O)O
0.5 µM | 27 µM | CCCCCC(O)c1cccc(CCCCCC(=O)O)c1 (stereo not given)
0.9 µM | 20 µM | CCCCCC(O)c1cccc(/C=C\CCCC(=O)O)c1 (stereo not given)
1.6 µM | 57 µM | CCCCCC(O)c1cccc(/C=C\CCCC(=O)O)n1 (stereo not given)
0.5 µM | 7 µM | CCCCCC(=O)c1cccc(/C=C\CCCC(=O)O)c1
 | 0.05 µM | O=C(O)CCn1c2c(c3ccccc31)CC(NS(=O)(=O)c1ccc(F)cc1)CC2 (single isomer, unassigned) [RAMATROBAN]
